Three compounds from patent publication US9718811B2, “(S)-enantiomer of mepazine” (Helmholtz Zentrum München—Deutsches Forschungszentrum für …, priority 2013, dated 2017) can be followed below.

The target in one data set is T1, human MALT1 (L339-R719) (Homo sapiens, UniProt Q9UDY8).
T1 construct: human MALT1 (L339-R719) was used; only implied by the Ni-NTA purification; made in house; host or cells: Escherichia coli Rosetta (DE3)
T1 sequence (Q9UDY8 339-719): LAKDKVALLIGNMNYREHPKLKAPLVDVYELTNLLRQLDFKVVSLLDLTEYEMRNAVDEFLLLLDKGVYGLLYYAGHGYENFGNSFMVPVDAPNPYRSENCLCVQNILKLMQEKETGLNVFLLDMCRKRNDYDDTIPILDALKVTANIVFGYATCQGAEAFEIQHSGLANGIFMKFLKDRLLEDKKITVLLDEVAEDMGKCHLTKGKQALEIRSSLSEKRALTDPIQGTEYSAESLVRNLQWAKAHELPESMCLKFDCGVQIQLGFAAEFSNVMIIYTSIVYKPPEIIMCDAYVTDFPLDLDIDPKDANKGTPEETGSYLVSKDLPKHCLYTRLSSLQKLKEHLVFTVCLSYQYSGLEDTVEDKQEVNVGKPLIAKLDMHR
Description: Tryptophan fluorescence quenching assay. To be noted: monomeric MALT1 (L339-R719), quenching of W580, 20° C.; FIG. 2a/b; read-out: binding affinity KD.

The target of another data set is T2, GST-MALT1325-760 (Homo sapiens, UniProt Q9UDY8).
T2 sequence (Q9UDY8 325-760 limits assumed): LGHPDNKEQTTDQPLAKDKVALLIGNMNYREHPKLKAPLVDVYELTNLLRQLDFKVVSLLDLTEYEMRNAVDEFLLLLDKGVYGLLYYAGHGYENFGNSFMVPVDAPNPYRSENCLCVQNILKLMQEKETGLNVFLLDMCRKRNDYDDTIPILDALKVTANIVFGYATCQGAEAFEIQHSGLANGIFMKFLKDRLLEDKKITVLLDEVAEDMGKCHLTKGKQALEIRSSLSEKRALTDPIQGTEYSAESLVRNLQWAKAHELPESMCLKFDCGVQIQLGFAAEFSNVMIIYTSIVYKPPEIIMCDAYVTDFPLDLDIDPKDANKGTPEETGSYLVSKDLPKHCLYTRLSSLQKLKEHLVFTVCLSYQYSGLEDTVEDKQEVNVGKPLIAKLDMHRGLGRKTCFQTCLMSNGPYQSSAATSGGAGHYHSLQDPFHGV
Briefly: MALT1 paracaspase activity (fluorogenic cleavage) assay.

In data set [1] the test system is ABC DLBCL cell-line OCI-Ly10. Description: DLBCL xenograft model, OCI-Ly10 tumor. The format is in vivo, mice (NSG). To be noted: 6 or 12 mg/kg IP once daily, started 13 days after transplantation. The procedure: (§1) Tumors were engrafted in 6- to 8-week-old female NOD.Cg-Prkdc^scid I12rg^tm1Wj1/SzJ (NSG) mice by subcutaneous injection of 4×10^6 tumor cells (OCI-Ly10 or Su-DHL-6) resuspended in matrigel (BD). Both tumors were engrafted simultaneously on opposite flanks of individual mice, with four mice for each treatment group. […] A daily application of 150 or 300 μg of compound per animal (˜25 g) was used, corresponding to approximately 6 or 12 mg/kg, respectively. The tumor size was measured every other day after visual appearance using a caliper and calculated as square millimeters (length×width). Mice were sacrificed when the tumors were above 250 mm^2 and statistical data was analyzed with a two-way ANOVA test.
(§2) In the DLBCL xenograft model NSG mice were subcutaneously injected with the MALT1-dependent ABC DLBCL cell line OCI-Ly10 and the MALT1-independent GCB DLBCL cell-line Su-DHL6 in opposing flanks of individual mice.

The nature of data set [2]: Chronic progressive EAE (experimental allergic encephalomyelitis) model. In kind it is in vivo, C57Bl/6 mice. Here is the method:
For the EAE model first 1 mg/ml MOG35-55 peptides (MOG: myelin/oligodendrocyte glycoprotein; accession no. AAF74786) were emulsified 1:1 in Complete Freund's Adjuvant (CFA, incl. 5 mg/ml heat-killed M. tuberculum H37RA). On day one female C57Bl/6 mice (8-10 weeks old) were subcutaneously treated with 0.1 ml of MOG/CFA (0.1 mg MOG/0.25 mg CFA per mouse) in both flanks. In addition 0.2 ml pertussis toxin ([…]) was intraperitoneally injected immediately after (200 ng per mouse), followed by a second injection the day after. […] The clinical score of the mice was determined according to the following parameters: Score 0=no obvious signs of motor dysfunction in mice compared to non-immunized control; 0.5—distal tail limpness; 1=limp or floppy tail; 2=limp tail and weakness in hind legs; 3=limp tail and complete paralysis of hind legs OR limp tail with paralysis of one front and one hind leg; 4=limp tail, complete hind leg and partial front leg paralysis; 5=complete hind and complete front leg paralysis, no movement around cage OR mouse is spontaneously rolling in cage OR mouse found dead due to paralysis.
At the end of the study mice were euthanized and blood serum and also the brain and the spinal cord was collected for a histopathology analysis. Here foci of inflammatory cell infiltrate (at least 50 μm) into the spinal cord were counted and scored using the following criteria: 0=normal; 0.5 very minimal; 1=minimal, 2-4 generally less than 100 μm width/length; 2=mild, 5-7 small discreet foci; 3=moderate, 8-10 small plus larger coalescing areas; 4=marked, 11-13 small plus larger coalescing areas; 5=severe, often multiple coalescing >13. Percent area of white matter that bad demyelination, edema, dilated axons was estimated and used to determine a score using the following criteria: 0=normal; 1=minimal, 1-5% of total are affected; 2=mild, 5-25% of total area affected; 3=moderate, 26-50% of total area affected; 4=marked, 51-75% of total area affected; 5=>75% of total area affected.

The nature of data set [3]: Racemization check by chiral HPLC. In kind it is physicochemical. Here is the method: Enantiomeric purity of the thioridazine and mepazine enantiomers was determined by comparison to commercially available racemates using a ChiralPak IA 250×4.6 mm (L×I.D.) […] tris(3,5-dimethylphenylcarbamate) column. For thioridazine an isocratic gradient of 1% ethanol in hexane containing 0.1% diethylamine modifier was used. In the case of mepazine an isocratic gradient of 1% isopropanol in hexane containing 0.1% diethylamine modifier was used. Both were run at 1 ml/min.
(S)-Mepazine provided a single peak by Chiral HPLC under conditions in which the individual enantiomers are resolved.

Data set [4] concerns GCB DLBCL cell-line Su-DHL-6. Briefly: DLBCL xenograft model, Su-DHL-6 control tumor. The format is in vivo, mice (NSG). To be noted: 6 or 12 mg/kg IP once daily, started 13 days after transplantation. Here is the method: as §1, §2
Data set [5] is described as follows: CIA (collagen induced arthritis) model. In kind it is in vivo, DBA1/J mice. To be noted: paw histopathology.
Where [6] appears, read: IC50 (MALT1 cleavage assay), wt GST-MALT1325-760, Ac-LRSR-AMC substrate, FIG. 2c/d.
Where [7] appears, read: IC50 on recombinant MALT1 (fluorogenic MALT1 cleavage assay), FIG. 3a/b.
[8] abbreviates: IP 8 mg/kg twice daily, histopathology, 8 mg/kg.

“Also recorded” adds a separate entry of the source.

Description for human MALT1 (L339-R719): For crystallization and tryptophan fluorescence quenching human MALT1 (L339-R719) was used.
Fluorescence quenching of tryptophan W580 was measured with the fluorescence spectrometer (FluoroMax-P, HORIBA Jobin Yvon) at an extinction wavelength of 285 nm and an emission wavelength of 329 nm. The measurement was performed by 2 μl titration steps of 400 μM, 800 μM, 4 mM, 8 mM thioridazine and mepazine stock solutions in H2O against 0.5 μM monomeric MALT1 (L339-R719) in 1.6 ml assay buffer (5 mM Hepes pH 7.0, 300 mM NaCl) at 20° C. The quenching assay of thioridazine and mepazine enantiomers was performed equally to racemates measurements.
For this assay advantage was taken from the fact that W580 is the only tryptophan residue in the MALT1Casp-Ig3 construct and is in close proximity to the bound tricyclic moiety of the phenothiazine derivatives.

The term Kd denotes the concentration at which binding is half-saturated. A word on the IC50: it is the midpoint of a concentration-inhibition curve. Consider `CSc1ccc2c(c1)N(CCC1CCCCN1C)c1ccccc1S2` (single isomer, unassigned) [(R)-thioridazine], for which, at human MALT1 (L339-R719), the dissociation constant Kd stood at 23 ± 0.6 µM. The IC50 was 5 ± 1.5 µM at GST-MALT1325-760 (setting [6]) and 4.99 ± 1.52 µM on GST-MALT1325-760 (setting [7]).
On to `CN1CCC[C@H](CN2c3ccccc3Sc3ccccc32)C1` [(S)-mepazine, 10-{[(3S)-1-methylpiperidin-3-yl]methyl}-10H-phenothiazine], for which, in data set [1], the “growth of the ABC DLBCL (OCI-Ly10) tumor” value is recorded as “selective growth reduction”. The “EAE induced weight loss” value in data set [2] (IP 8 mg/kg twice daily) is reported as “reduced EAE induced weight loss”. The “EAE severity (clinical score)” value in data set [2] (IP 8 mg/kg twice daily (16 mg/kg), started at clinical score of around 1) was “reduction of EAE severity”. Moreover, in data set [2] (setting [8]), the “demyelination in the spinal cord” value is given as “reduced; also recorded: inhibition” and the “inflammatory foci formation in the spinal cord” value is “reduced; also recorded: inhibition”. Further, the “racemization on standing or in solution” value in data set [3] is recorded as “No racemization”. Further, the “growth of the GCB DLBCL (Su-DHL-6) control tumor” value in data set [4] was “not affected”. For the same compound, in data set [5], the CIA-related inflammation entry was “strong reduction; also recorded: decrease”, the bone resorption result was “strong reduction; also recorded: decrease”, the cartilage damage entry was “strong reduction; also recorded: decrease” and the pannus formation result was “strong reduction; also recorded: decrease”.
In the case of `CSc1ccc2c(c1)N(CCC1CCCCN1C)c1ccccc1S2` (single isomer, unassigned) [(S)-thioridazine], the dissociation constant (Kd) on human MALT1 (L339-R719) was 21.3 ± 0.5 µM. For the same compound, the figures for the IC50 at GST-MALT1325-760 (setting [6]) and on GST-MALT1325-760 (setting [7]) were 4.8 ± 0.9 µM and 4.83 ± 0.88 µM, respectively.
